# In patent US20040236125A1, “Novel structures and compositions comprising sterols and/or stanols and specific classes of anti-inflammatory agents and use thereof in treating or preventing cardiovascular disease, its underlying conditions including hyperlipidemia and other disorders having inflammation as part of their …” (FORBES MEDI-TECH INC., priority 2002, published 2004):
# Where two headings read alike, the source gives them in different places.
# What was measured:
# COX-1 = COX-1 (Ovis aries, UniProt P05979); details: 0.45 μM, n=3
# Experimental: (§1) In summary, FDC-2-4 was treated with a 1:1 ratio of porcine pancreatic lipase and colipase (PL/C). Inhibition of cyclooxygenase was determined using a colorimetric (ovine) COX inhibitor screening assay. The conversion of arachidonic acid to prostaglandin H2 was monitored by a colorimetric reaction. […] Reaction was initiated by adding 100-μM arachidonic acid and 100-μM tetramethyl-p-phenylenediamine (TMPD—the colourimetric substrate). The optical density of the colored product was determined at 620 nm. Acetylsalicylate was used as a positive control in all experiments.
# (§2) The solution was vortexed for 2 min. and sonicated for 5 min. before adding 2.5 mg porcine pancreatic lipase and 2.5 mg porcine colipase. The reaction was incubated at room temperature for 2 hours.
# (§3) Inhibition was determined using a colorimetric (ovine) COX inhibitor screening assay (Cayman Chemicals). The conversion of arachidonic acid to prostaglandin H2 was monitored by a colorimetric reaction. COX was exposed to the inhibitors for 5 minutes. Reaction was initiated by adding 100-μM arachidonic acid and 100-μM tetramethyl-p-phenylenediamine (TMPD—the colourimetric substrate). The optical density of the colored product was determined at 620 nm 5 minutes after initiation. […] PL/C-treated FDC-2-4 was compared with non-PL/C-treated FDC-2-4 and control (no FDC-2-4 added) in determining COX inhibition. Acetylsalicylate (ASA), was used as a positive control in all experiments. Statistical Analysis on all treatment groups were done using ANOVA and Tukey Posthoc tests.
# COX-2 = COX-2 (Ovis aries, UniProt P79208); details: 4.5 μM, n=3
# Experimental: as §1, §2, §3
# [1] = system: cholesterol absorption in the intestine; details: 20 mg/kg single-dose oral gavage in Intralipid 10% emulsion; blood 10 hours after gavage; FIG. 3
# Experimental: Adult male Sprague Dawley rats (˜350 g) were maintained under a 12 h light (0700-1900)/dark cycle and supplied with a laboratory standard diet and water ad libitum prior to starting the experiment.
# Both groups received a single-dose oral gavage at 0700. Blood collection was performed by cardiac puncture 10 hours after oral gavage. Animals were fasted after gavage. Access to water was permitted ad libitum during the experiment. Blood obtained by cardiac puncture was collected in EDTA-coated tubes and centrifuged. Plasma samples were analyzed for [3H] cholesterol by radioactivity.
# Adult male Sprague Dawley rats were given one of the derivatives of the present invention in an oral formulation containing:
# 20 mg/kg sterol/stanol analogue
# 1 mg unlabeled cholesterol
# 25 μCi [3H] Cholesterol in an emulsion with Intralipid 10%.
# Animals were fasted 12-16 hours before and 10 hours after the oral gavage was performed. Blood samples were collected by cardiac puncture 10 hours following oral gavage. Plasma samples obtained by centrifugation were analyzed for [3H] Cholesterol and results expressed as a percentage of inhibition of cholesterol absorption in the intestine.
# In addition sodium hydroxide was added to adjust the pH so that the final product pH is 8.0; pH range is 6.0 to 8.9. […] Each animal received 20 mg/kg body weight test substance dissolved in water or other appropriate solvent. […]
# [2] = PL/C-treated (pancreatic lipase/colipase)
# COX-1, sequence (P05979 25-600): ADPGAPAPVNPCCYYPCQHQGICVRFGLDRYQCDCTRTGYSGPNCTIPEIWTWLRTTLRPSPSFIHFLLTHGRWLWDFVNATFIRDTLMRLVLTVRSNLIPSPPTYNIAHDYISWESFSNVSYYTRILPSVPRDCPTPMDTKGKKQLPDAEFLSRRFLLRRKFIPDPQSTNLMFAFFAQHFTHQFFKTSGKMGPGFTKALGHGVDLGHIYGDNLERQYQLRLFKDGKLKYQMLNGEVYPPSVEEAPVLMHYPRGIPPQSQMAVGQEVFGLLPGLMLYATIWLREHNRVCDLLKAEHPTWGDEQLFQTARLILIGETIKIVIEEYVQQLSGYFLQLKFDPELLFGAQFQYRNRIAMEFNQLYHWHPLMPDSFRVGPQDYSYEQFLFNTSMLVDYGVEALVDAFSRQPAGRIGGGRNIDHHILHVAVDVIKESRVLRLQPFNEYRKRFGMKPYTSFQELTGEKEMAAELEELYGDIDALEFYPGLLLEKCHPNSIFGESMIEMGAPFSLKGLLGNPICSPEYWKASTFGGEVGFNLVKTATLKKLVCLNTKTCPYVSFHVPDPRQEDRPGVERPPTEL
# COX-2, sequence (P79208 17-603): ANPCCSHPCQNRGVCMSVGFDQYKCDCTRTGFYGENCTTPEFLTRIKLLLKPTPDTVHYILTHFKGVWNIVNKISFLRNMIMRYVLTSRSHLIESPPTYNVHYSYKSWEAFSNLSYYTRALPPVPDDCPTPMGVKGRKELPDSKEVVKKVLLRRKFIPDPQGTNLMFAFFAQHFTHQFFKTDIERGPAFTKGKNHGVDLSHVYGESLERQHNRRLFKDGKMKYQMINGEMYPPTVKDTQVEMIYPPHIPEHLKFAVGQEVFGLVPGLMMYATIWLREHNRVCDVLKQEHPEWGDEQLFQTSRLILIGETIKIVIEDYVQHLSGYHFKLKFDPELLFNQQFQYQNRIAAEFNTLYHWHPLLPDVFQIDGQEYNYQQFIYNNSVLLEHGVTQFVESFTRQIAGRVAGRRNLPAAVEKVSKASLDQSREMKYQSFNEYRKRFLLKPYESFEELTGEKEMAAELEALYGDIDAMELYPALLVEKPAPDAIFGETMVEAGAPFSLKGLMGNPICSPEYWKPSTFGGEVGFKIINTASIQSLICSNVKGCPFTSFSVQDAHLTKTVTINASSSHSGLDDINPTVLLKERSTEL
substance,measurement,setting,value
acetoxyphytostanyl salicylate [FDC-2-4],inhibition of COX-1 activity,COX-1; [2],69%
same,inhibition of COX-1 activity,COX-1; non-PL/C-treated,20%
same,inhibition of COX-2,COX-2; [2],88%
same,inhibition of COX-2,COX-2; non-PL/C-treated,64%
same,inhibition of cholesterol absorption (plasma [3H] cholesterol) compared with controls and VP4,[1],significantly outperforms both the controls and VP4
